From ChEMBL document CHEMBL5058642, “Data for DCP probe TP-051” (2022)
Values belong to the compound of their own block, whether it stands above or below them.

Columns and labels:
[1] = target: Interstitial collagenase (Homo sapiens) (UniProt P03956); experiment: Inhibition of Peptidase, Matrix Metalloproteinase-1 (MMP-1) at 10 µM in the Eurofins-Panlabs enzyme assay (Eurofins_assay_114110); details: Compound concentration 10.0 uM
[2] = target: Phosphodiesterase 3 (Homo sapiens) (UniProt Q14432+Q13370); experiment: Inhibition of Phosphodiesterase PDE3 at compound concentration of 10.0 uM in the Eurofins-Panlabs enzyme assay (Eurofins_assay_152000); format: protein assay; parameters: substrate with concentration 1.01 uM [3H] cAMP + cAMP, incubation time 20 min, incubation temperature 25 C; details: Compound concentration 10.0 uM
[3] = target: 5-hydroxytryptamine receptor 2A (Homo sapiens) (UniProt P28223); details: Compound concentration 10.0 uM
Sequence of 5-hydroxytryptamine receptor 2A (Homo sapiens) (P28223 whole entry): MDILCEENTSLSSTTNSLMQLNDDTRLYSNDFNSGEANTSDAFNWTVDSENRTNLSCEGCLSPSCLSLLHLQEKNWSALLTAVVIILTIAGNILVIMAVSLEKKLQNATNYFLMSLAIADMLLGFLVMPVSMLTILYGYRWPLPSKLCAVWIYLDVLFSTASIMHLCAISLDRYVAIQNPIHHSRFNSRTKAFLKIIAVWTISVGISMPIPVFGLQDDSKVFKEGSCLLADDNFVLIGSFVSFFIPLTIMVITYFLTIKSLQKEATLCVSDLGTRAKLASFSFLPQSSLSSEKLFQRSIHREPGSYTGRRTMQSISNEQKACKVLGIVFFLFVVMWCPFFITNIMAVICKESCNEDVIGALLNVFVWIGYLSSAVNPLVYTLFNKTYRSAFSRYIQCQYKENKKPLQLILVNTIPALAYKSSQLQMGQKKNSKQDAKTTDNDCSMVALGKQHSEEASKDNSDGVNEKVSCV

[4] = target: Vasopressin V2 receptor (Homo sapiens) (UniProt P30518); experiment: Inhibition of Vasopressin V2 at 10 µM in the Eurofins-Panlabs radioligand binding assay (Eurofins_assay_287610); parameters: ligand concentration 4 nM; details: Compound concentration 10.0 uM
Homo sapiens [5] = species: Homo sapiens; experiment: Inhibition of Phosphodiesterase PDE4 at compound concentration of 10.0 uM in the Eurofins-Panlabs enzyme assay (Eurofins_assay_154000); format: protein assay; parameters: substrate with concentration 1.01 uM [3 H]cAMP + cAMP, incubation time 20 min, incubation temperature 25 C; details: Compound concentration 10.0 uM
[6] = target: Phospholipase A2 (Sus scrofa) (UniProt A0A8D1VEY7); experiment: Phospholipase PLA2-I Eurofins-Panlabs enzyme assay; parameters: substrate with concentration; details: Compound concentration 10.0 uM
Sequence of Phospholipase A2 (Sus scrofa) (A0A8D1VEY7 as listed by the source): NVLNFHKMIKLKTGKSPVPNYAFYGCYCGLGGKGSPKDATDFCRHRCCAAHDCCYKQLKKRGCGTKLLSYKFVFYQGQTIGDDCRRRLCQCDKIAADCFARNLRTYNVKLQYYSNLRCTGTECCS

[7] = target: 5-hydroxytryptamine receptor 5A (Homo sapiens) (UniProt P47898); details: Compound concentration 10.0 uM
[8] = target: Xanthine dehydrogenase/oxidase (Bos taurus) (UniProt P80457); experiment: Xanthine Oxidase Eurofins-Panlabs enzyme assay; details: cattle, bovine milk xanthine oxidase, probe Xanthine, 165 µM
Sequence of Xanthine dehydrogenase/oxidase (Bos taurus) (P80457 whole entry, looked up): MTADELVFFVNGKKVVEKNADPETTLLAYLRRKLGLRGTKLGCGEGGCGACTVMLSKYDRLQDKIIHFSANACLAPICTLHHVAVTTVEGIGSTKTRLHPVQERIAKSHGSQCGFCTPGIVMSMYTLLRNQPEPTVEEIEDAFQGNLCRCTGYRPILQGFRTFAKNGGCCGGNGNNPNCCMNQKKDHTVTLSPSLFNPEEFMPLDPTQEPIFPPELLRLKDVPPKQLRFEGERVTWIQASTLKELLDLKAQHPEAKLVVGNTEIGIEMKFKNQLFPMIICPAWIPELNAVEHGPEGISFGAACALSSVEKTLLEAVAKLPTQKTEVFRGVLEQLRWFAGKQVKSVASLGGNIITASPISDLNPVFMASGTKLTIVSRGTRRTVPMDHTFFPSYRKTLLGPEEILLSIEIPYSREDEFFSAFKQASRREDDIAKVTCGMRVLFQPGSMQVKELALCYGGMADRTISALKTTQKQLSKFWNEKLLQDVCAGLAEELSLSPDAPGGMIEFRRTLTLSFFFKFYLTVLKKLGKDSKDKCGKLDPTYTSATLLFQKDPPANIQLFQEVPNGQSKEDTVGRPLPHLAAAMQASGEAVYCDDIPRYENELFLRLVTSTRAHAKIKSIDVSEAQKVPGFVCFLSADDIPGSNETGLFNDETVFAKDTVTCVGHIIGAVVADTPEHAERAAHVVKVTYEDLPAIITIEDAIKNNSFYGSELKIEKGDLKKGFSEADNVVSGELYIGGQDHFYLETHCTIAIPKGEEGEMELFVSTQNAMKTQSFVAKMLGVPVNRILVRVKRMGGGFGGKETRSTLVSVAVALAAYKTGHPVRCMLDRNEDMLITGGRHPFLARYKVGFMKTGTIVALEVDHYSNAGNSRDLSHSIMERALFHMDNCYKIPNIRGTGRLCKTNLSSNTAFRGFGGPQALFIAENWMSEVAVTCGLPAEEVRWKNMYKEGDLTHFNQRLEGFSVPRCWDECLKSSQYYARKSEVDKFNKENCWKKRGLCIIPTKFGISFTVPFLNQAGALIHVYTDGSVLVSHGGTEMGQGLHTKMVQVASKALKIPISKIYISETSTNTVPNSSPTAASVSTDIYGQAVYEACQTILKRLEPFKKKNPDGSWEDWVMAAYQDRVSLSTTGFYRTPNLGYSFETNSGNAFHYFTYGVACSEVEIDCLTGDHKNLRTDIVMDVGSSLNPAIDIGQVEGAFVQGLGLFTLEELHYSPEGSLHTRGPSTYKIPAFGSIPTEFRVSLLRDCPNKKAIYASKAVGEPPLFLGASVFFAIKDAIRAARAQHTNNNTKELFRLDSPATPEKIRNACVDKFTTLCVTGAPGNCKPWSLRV

Rattus norvegicus = species: Rattus norvegicus; experiment: ATPase, Ca2+ Eurofins-Panlabs enzyme assay; details: Compound concentration 10.0 uM
[9] = target: Cathepsin G (Homo sapiens) (UniProt P08311); experiment: Inhibition of Peptidase, CTSG (Cathepsin G) at 10 µM in the Eurofins-Panlabs enzyme assay (Eurofins_assay_112510); parameters: substrate with concentration; details: Compound concentration 10.0 uM
Homo sapiens [10] = species: Homo sapiens; experiment: Protein Serine/Threonine Kinase, MAPK14 (p38α) Eurofins-Panlabs enzyme assay; parameters: substrate with concentration 10 µg/mL Myelin Basic Protein (MBP), incubation time 60 min, incubation temperature 25 °C; details: Compound concentration 10.0 uM
[11] = target: 3-hydroxy-3-methylglutaryl-coenzyme A reductase (Homo sapiens) (UniProt P04035); experiment: HMG-CoA Reductase Eurofins-Panlabs enzyme assay; details: Rattus norvegicus; Compound concentration 10.0 uM
[12] = target: Coagulation factor X (Homo sapiens) (UniProt P00742); experiment: Peptidase, Factor Xa Eurofins-Panlabs enzyme assay; parameters: substrate with concentration; details: Compound concentration 10.0 uM
Sequence of Coagulation factor X (Homo sapiens) (P00742 41-179 limits assumed): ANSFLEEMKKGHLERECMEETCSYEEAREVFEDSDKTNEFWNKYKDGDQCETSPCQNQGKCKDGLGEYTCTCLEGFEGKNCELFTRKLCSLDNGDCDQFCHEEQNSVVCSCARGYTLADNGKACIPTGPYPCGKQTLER
Sequence of Coagulation factor X (Homo sapiens) (P00742 235-488 limits assumed): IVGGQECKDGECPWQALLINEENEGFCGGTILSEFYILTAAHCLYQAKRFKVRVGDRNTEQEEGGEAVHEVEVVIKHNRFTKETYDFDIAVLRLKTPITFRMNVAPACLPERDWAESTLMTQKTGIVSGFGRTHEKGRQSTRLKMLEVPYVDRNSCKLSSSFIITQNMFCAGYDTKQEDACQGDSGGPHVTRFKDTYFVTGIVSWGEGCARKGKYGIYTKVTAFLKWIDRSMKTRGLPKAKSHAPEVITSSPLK

Homo sapiens [13] = species: Homo sapiens; details: Compound concentration 10.0 uM
[14] = target: Collagenase 3 (Homo sapiens) (UniProt P45452); experiment: Peptidase, Matrix Metalloproteinase-13 (MMP-13) Eurofins-Panlabs enzyme assay; parameters: substrate with concentration; details: Compound concentration 10.0 uM
[15] = target: Protein phosphatase 3 catalytic subunit alpha (Homo sapiens) (UniProt Q08209); experiment: Protein Serine/Threonine Phosphatase, Calcineurin, PP2B Eurofins-Panlabs enzyme assay; details: Compound concentration 10.0 uM
[16] = target: Cannabinoid receptor 1 (Homo sapiens) (UniProt P21554); experiment: Inhibition of Cannabinoid CB1 at compound concentration of 10.0 uM in the Eurofins-Panlabs radioligand binding assay (Eurofins_assay_217050); parameters: ligand concentration 2 nM; details: Compound concentration 10.0 uM
Sequence of Cannabinoid receptor 1 (Homo sapiens) (P21554 whole entry): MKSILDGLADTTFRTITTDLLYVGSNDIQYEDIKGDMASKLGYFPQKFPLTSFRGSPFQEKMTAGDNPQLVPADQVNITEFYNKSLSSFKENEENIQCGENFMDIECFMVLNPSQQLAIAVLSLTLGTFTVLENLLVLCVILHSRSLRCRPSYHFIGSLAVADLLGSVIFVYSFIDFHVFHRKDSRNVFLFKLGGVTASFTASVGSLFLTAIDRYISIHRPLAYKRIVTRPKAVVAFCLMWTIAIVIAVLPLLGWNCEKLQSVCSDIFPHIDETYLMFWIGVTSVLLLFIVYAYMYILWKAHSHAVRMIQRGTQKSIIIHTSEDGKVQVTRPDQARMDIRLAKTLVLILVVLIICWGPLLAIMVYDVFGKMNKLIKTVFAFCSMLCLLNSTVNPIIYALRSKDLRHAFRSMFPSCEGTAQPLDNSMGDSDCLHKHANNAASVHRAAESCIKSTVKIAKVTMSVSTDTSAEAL

[17] = target: Muscarinic acetylcholine receptor M3 (Homo sapiens) (UniProt P20309); details: Compound concentration 10.0 uM
Sequence of Muscarinic acetylcholine receptor M3 (Homo sapiens) (P20309 whole entry, looked up): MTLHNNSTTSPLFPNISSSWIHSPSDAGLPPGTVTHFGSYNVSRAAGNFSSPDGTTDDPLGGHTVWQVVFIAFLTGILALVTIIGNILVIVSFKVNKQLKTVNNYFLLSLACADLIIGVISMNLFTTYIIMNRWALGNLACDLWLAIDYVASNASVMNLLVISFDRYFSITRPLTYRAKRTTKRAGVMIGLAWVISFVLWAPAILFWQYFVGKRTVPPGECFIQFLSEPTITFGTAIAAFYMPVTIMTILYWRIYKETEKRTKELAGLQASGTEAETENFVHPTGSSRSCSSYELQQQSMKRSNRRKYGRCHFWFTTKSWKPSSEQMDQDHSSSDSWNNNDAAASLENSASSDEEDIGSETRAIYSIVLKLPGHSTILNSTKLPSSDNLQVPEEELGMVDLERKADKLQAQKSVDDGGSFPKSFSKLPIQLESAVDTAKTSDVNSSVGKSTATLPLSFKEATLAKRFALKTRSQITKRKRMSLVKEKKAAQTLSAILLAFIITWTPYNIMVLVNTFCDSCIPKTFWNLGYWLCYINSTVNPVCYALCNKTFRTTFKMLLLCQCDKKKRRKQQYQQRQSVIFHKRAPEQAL

MAO-A = MAO-A (Homo sapiens, UniProt P21397); experiment: Inhibition of Monoamine Oxidase MAO-A at compound concentration of 10.0 uM in the Eurofins-Panlabs enzyme assay (Eurofins_assay_140010); parameters: substrate with concentration 50 uM Kynuramine, incubation time 60 min, incubation temperature 37 C; details: recombinant human MAO-A expressed in insect Hi5 cells, probe Kynuramine, 50 uM, compound concentration 10 uM
[18] = target: T1, 5-hydroxytryptamine receptor 3A (Homo sapiens) (UniProt P46098); experiment: Inhibition of Serotonin (5-Hydroxytryptamine) 5-HT3 at 10 µM in the Eurofins-Panlabs radioligand binding assay (Eurofins_assay_271910); parameters: ligand concentration 0.69 nM; details: Compound concentration 10.0 uM
T1 sequence (whole entry): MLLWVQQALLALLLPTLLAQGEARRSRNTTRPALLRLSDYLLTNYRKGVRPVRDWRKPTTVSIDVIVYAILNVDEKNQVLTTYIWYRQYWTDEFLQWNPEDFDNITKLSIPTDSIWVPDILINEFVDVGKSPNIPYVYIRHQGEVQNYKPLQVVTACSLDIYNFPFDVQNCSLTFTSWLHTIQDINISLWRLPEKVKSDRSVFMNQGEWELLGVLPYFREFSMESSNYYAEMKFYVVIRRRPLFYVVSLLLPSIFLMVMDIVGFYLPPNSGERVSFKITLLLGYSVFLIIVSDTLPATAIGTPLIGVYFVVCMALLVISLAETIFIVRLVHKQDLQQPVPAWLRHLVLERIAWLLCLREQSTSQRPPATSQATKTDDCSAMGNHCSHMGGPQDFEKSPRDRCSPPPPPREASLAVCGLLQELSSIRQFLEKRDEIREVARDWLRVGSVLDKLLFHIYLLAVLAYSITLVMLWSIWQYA

[19] = target: Receptor tyrosine-protein kinase erbB-2 (Homo sapiens) (UniProt P04626); experiment: Protein Tyrosine Kinase, ERBB2 (HER2) Eurofins-Panlabs enzyme assay; details: Compound concentration 10.0 uM
Sequence of Receptor tyrosine-protein kinase erbB-2 (Homo sapiens) (P04626 whole entry): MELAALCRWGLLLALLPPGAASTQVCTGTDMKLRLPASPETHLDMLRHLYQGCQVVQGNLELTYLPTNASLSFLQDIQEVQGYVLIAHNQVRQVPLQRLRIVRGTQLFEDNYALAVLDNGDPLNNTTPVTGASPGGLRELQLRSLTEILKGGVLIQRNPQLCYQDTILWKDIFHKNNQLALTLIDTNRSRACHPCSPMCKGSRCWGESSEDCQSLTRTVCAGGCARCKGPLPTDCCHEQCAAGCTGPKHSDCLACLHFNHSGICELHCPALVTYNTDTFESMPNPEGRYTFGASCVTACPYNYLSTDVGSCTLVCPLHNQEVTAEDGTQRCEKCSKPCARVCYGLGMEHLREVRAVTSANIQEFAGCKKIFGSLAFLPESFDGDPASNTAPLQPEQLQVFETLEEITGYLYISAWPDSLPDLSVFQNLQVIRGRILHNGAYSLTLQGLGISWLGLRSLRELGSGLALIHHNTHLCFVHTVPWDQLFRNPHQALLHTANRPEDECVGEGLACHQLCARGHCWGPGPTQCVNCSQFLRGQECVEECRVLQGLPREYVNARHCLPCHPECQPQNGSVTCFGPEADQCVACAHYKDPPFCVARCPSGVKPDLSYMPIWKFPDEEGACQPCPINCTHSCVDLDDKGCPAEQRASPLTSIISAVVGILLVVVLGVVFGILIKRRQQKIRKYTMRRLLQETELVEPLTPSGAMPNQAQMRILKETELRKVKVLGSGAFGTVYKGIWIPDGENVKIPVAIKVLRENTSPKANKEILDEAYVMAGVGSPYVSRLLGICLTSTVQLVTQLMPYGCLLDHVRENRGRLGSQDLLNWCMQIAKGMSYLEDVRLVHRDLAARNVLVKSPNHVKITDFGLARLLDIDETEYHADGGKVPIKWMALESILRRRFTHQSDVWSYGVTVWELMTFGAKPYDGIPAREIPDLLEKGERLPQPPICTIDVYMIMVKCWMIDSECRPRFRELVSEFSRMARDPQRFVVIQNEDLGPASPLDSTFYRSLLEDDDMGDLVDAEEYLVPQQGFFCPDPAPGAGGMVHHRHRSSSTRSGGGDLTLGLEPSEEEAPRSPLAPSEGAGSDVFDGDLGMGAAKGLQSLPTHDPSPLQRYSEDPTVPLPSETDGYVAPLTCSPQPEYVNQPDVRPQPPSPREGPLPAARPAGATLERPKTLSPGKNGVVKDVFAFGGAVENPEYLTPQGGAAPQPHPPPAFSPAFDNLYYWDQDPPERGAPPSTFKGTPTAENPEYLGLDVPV

[20] = target: Coagulation factor VII (Homo sapiens) (UniProt P08709); experiment: Peptidase, Factor VIIa Eurofins-Panlabs enzyme assay; parameters: substrate with concentration; details: Compound concentration 10.0 uM
[21] = target: T2, Free fatty acid receptor 1 (Homo sapiens, UniProt O14842); experiment: FLIPR functional assay (Ca influx activity of CHO cells)
T2 sequence (O14842 whole entry): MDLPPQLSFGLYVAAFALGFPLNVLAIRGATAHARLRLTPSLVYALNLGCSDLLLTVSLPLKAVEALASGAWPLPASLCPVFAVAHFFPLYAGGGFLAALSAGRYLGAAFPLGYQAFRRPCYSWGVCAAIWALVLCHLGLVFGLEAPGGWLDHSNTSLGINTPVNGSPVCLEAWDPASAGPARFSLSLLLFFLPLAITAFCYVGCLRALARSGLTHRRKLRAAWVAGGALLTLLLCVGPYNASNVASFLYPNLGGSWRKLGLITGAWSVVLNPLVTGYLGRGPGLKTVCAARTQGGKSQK

[22] = target: Muscarinic acetylcholine receptor M4 (Homo sapiens) (UniProt P08173); details: Compound concentration 10.0 uM
[23] = target: T2, Free fatty acid receptor 1; experiment: FFAR1 binding assay
[24] = target: GABA-A receptor; anion channel (Rattus norvegicus) (UniProt O09028+P15431+P18506+P18508+P19969+P20236+P23574+P23576+P28471+P28473+P30191+P62813+P63079+P63138+Q91ZM7+Q9ES14); details: Compound concentration 10.0 uM

inhibition [1]: 2%
inhibition [2]: 3%
inhibition [3]: 7.36%
inhibition [4]: 0%
inhibition (Homo sapiens [5]): 26%
inhibition [6]: 6%
inhibition [7]: 13.3%
inhibition at 30 min, 10 µM [8]: 1% (not active)
inhibition (Rattus norvegicus): -1%
inhibition [9]: 20%
inhibition (Homo sapiens [10]): 60%
inhibition [11]: -5%
inhibition [12]: 2%
inhibition (Homo sapiens [13]): 1%
inhibition [14]: 5%
inhibition [15]: 10%
inhibition [16]: 8%
inhibition [17]: -0.18%
inhibition at 60 min, 10 µM (MAO-A): 7% (not active)
inhibition [18]: -3%
inhibition [19]: -9%
inhibition [20]: -10%
Compound: Cc1cc(OC2CCS(=O)(=O)CC2)cc(C)c1-c1cccc(COc2ccc(CCC(=O)O)c(F)c2)c1

Compound: Cc1cc(OC2CCS(=O)(=O)CC2)cc(C)c1-c1cccc(COc2ccc(C(=O)O)c(F)c2)c1
EC50 [21]: > 10 µM (not active)
inhibition [22]: -4.72%
Ki [23]: > 10 µM (not active)
inhibition [24]: -1%
